# Test results: patent US20250351829A1, “HERBICIDAL COMBINATIONS AND A METHOD FOR CONTROLLING UNDESIRED VEGETATION” (UPL Mauritius Limited, priority 2022, published 2025)
# System: Bidens pilosa
# Assay: Post-emergence herbicidal activity, weed control efficacy trials
# Format: in vivo
# Conditions: 7 DAA
# Description: Methodology: Trials were conducted to evaluate the efficacy of the combinations comprising L-glufosinate ammonium and additional herbicides on Bidens pilosa weed.
# The soil used was sandy clay loam-sand: 68.0%; silt: 8.0%; clay: 24.0%.
# All treatments were in 3 replications per treatment with a spray volume of about 150 L/ha.
# Efficacy Evaluation: The expected efficacy of the combination comprising L-glufosinate ammonium and additional herbicides was calculated using the well-established Colby method.
# In the Colby method, the expected (or predicted) response of a combination of herbicides is calculated by taking the product of the observed response for each individual component of the combination when applied alone, divided by 100, and subtracting this value from the sum of the observed response for each component when applied alone. An unexpected enhancement in efficacy of the combination is then determined by comparing the observed response of the combination to the expected (or predicted) response as calculated from the observed response of each individual component alone. If the observed response of the combination is greater than the expected (or predicted) response, or stated conversely, if the difference between the observed and expected response is greater than zero, then the combination is said to be synergistic or unexpectedly effective (Colby, S. R., Weeds, 1967(15), p. 20-22). The Colby method requires only a single dose of each herbicide applied alone and the mixture of both doses. The formula used to calculate the expected efficacy (EE) which was compared with the observed efficacy (OE) to determine the efficacy of the present disclosure is explained hereinbelow: […]
structure (smiles),measurement,setting,value
Cc1ccc2c(c1)[C@H](Nc1nc(N)nc(C(C)F)n1)[C@@H](C)C2 (stereo partly drawn) [Indaziflam],Observed efficacy (%) of Indaziflam (50 g a.i./ha),50 g a.i./ha,90%
CCc1cccc(C)c1N(COC(C)C)C(=O)CCl [Propisochlor],Observed efficacy (%) of Propisochlor (540 g a.i./ha),540 g a.i./ha,5%
CP(=O)(O)CC[C@H](N)C(=O)O.N [L-glufosinate ammonium],Observed efficacy (%) of L-glufosinate ammonium (150 g a.i./ha),Example 1,95%
same,Observed efficacy (%) of L-glufosinate ammonium (150 g a.i./ha),Example 2,95%
same,Observed efficacy (%) of L-glufosinate ammonium (150 g a.i./ha),Example 3,95%
"Cn1nc(C(F)(F)F)c(CS(=O)(=O)C2=NOC(C)(C)C2)c1OC(F)F [pyroxasulfone, Pyroxasulfone]",Observed efficacy (%) of pyroxasulfone (75 g a.i./ha),75 g a.i./ha,5%
